Consider 2 compounds from patent publication US20110111396A1, “BIOMARKERS FOR MONITORING THE TREATMENT BY QUINAZOLINONE COMPOUNDS” (priority 2007, published 2011).

Holding throughout (assay type): cell-based
The test system of assay [1] is NHL cell lines (Namalwa, Rec-1, Jeko-1, Granta-519, JVM-2, DB). Put plainly: NHL cell proliferation by 3H-thymidine incorporation assay. The procedure: As detailed below, the effect of the administration of a quinazolinone compound on several types of NHL cells was determined after 3 days using 3H-thymidine incorporation, microbead array technology and real time PCR.
To better understand how the effectiveness of quinazolinone compound administration varies among different cancer cell types, the quinazolinone compound 3-(2,5-dimethyl-4-oxo-4H-quinazolin-3-yl)-piperidine-2,6-dione was tested in vitro for its anti-proliferative effect in several NHL cell lines after 3 days of treatment.
(§1) NHL cell proliferation was assessed by 3H-thymidine incorporation assay. Briefly, cells were cultured in 96 well cell culture plates in complete RPMI-1640 medium in the presence and absence of drugs. Following incubation at 37° C. for 3 days, 1μCi 3H-thymidine was added to each well for the last 5 hours of incubation. The 3H incorporation of each well was then measured. The six tested cell lines were Namalwa, Rec-1, Jeko-1, Granta-519, JVM-2, and DB.

A further assay relates to DB cell line. Description: NHL cell proliferation by 3H-thymidine incorporation assay, DB cell line. Conditions: DB cells with t(14;18). As for the experimental part: as §1
Thus t(14;18) may be a negative prognostic factor in predicting clinical response to 3-(2,5-dimethyl-4-oxo-4H-quinazolin-3-yl)-piperidine-2,6-dione. Thus, SPARC gene expression can be used as a biomarker of NHL or MCL tumor response to quinazolinone compounds such as 3-(2,5-dimethyl-4-oxo-4H-quinazolin-3-yl)-piperidine-2,6-dione.

The next assay relates to SPARC mRNA. Description: SPARC mRNA level in NHL cells by real-time RT-PCR. The conditions noted are these: sensitive NHL cells; 24 hours of incubation; 10 μM; FIG. 2. As for the experimental part: The effect of the administration of 3-(2,5-dimethyl-4-oxo-4H-quinazolin-3-yl)-piperidine-2,6-dione in various NHL cells was measured after 24 hours of incubation, using real-time RT-PCR (FIG. 2).
The following exemplary procedures can be used. Upon purification of total RNA, real-time PCR is performed with 100 ng of total RNA, using an Applied Biosystems 7500 instrument (Applied Biosystems, Foster City, Calif.) using TaqMan Sequence Detection chemistry which uses a fluorogenic probe (FAM) to enable the detection of a specific PCR product as it accumulates during PCR. Samples are prepared in triplicate in 50 μl reaction volumes. […]
TaqMan® Gene Expression Assays are pre-formulated gene expression assays for rapid, reliable detection and quantification of human, mouse and rat mRNA transcripts. […] Data is analyzed using 7500 Real-Time PCR System Sequence Detection software v1.3 using the comparative CT relative quantification calculation method. The output is expressed as a fold-change of expression levels. The threshold level is selected to be automatically determined by the software and is set to be above the baseline but sufficiently low to be within the exponential growth region of an amplification curve. The cycle number at which the fluorescence signal associated with a particular amplicon accumulation crosses the threshold is referred to as the CT.

As for `Nc1cccc2c1CN(C1CCC(=O)NC1=O)C2=O` (centres unmarked) [1-oxo-2-(2,6-dioxopiperidin-3-yl)-4-aminoisoindoline, reference compound], in assay [1], the “order of sensitivity of the various NHL cell lines” value is “Namalwa (Burkitt's lymphoma)>Jeko-1>Rec-1>JVM-2>Granta-519 (all Mantle Cell Lymphomas, MCL)>DB”.

With `Cc1cccc2nc(C)n(C3CCC(=O)NC3=O)c(=O)c12` (centres unmarked) [3-(2,5-dimethyl-4-oxo-4H-quinazolin-3-yl)-piperidine-2,6-dione], the “anti-proliferative activity against NHL cells” value in assay [1] (3 days of treatment, 0.01, 0.1, 1, 10 and 100 μM, FIG. 1) is on record as “demonstrated anti-proliferative activity”. Moreover, the “dose dependence of the anti-proliferative effect” value in assay [1] (ranges tested 0, 0.01, 0.1, 1, 10 and 100 μM, especially in MCL cell lines) is given as “dose dependent”. In addition, the “response of DB cell line (rate of cell proliferation)” value in the assay on DB cell line is recorded as “increased rate of cell proliferation”. In addition, in the assay with SPARC mRNA, the “expression of SPARC mRNA” value is reported as “increased the expression of SPARC mRNA”.
